Several values for one entry are separate records, joined by “and”; a condition that tells them apart may be missing. Equal entries are not always repeated.
Tested on: ML-2
Assay: Differentiation-apoptosis assay, CD11b / annexin-V / Sytox Green / myeloid markers flow cytometry
Assay type: cell-based, human
Settings: ML-2 cell line; replicates 1-3 (Figure 2A)
Description: Next, the cells were washed twice with phosphate-buffered saline (PBS) and resuspended in 1X Binding Buffer at a concentration of 1 × 10^6 cells/mL. An 8-µL aliquot of APC-CD11b (BD Pharmingen, Franklin Lakes, NJ, USA) and 1 µL of FITC annexin-V (AV) (BD Pharmingen, Franklin Lakes, NJ, USA) antibodies were added and incubated for 15 min at room temperature in the dark. Finally, after the addition of 400 µL of 1X Binding Buffer to each tube, samples were collected on a BD FACSCanto flow cytometer (Becton Dickinson, San Jose, CA, USA) and analyzed using FlowJo software.
For the rest of experiments, the mix of antibodies (2 µL of BV786-CD13, Cat No, 744748 BD; 1 µL of diluted 1:10 antibody of PB-HLADR, Cat No 307633, Biolegend; 5 µL of APCH7-CD14, Cat No 641394, BD) was added to 10 µL of Brilliant Stain Buffer Plus (Becton Dickinson, San Jose, CA, USA). Then, 1 million cells (volume of 250 µL) were added and incubated for 30 min at room temperature in darkness. After 10 min incubation at room temperature with 2 mL of FACSLysing 1X, cells were centrifuged at 540 g for 5 min and washed twice with FACSBuffer. Finally, after centrifugation at 540 g for 5 min cells were resuspended in FACSBuffer.

## CC1=C(/C=C/C(C)=C/C=C/C(C)=C/C(=O)O)C(C)(C)CCC1 [ATRA, all-trans retinoic acid, reference compound]
  CD11b (%): 5.2% and 4.2% and 6.05%

Source: PMC11219871, “Epigenetic-based differentiation therapy for Acute Myeloid Leukemia” (Nature Communications, 2024)
